The target in this assay is SUD-NM / TRF2 G4 interaction (Severe acute respiratory syndrome coronavirus 2, UniProt P0DTD1). Type of assay: binding, SARS-CoV-2. Conditions: His-SUD-NM 10 nM, biotinylated TRF2 G4 50 nM, TMP 100 to 500 nM.

Entries after “also recorded” stand apart in the source; their conditions may differ.

Take `Cc1cc2cc3c(C)cc(=O)oc3c(C)c2o1` [TMP, trimethyl psoralen]: the “Inhibition of the SUD/G4 interaction (in words)” value is listed as “No inhibition; also recorded: does not inhibit”.

These data come from PMC8287907 (Nucleic Acids Research, 2021).
